From PubChem BioAssay AID1845206 (Molecular Pharmacology Branch, DTP, NCI, 2023)

System: NCI-H1618 multicellular tumor spheroid viability
Test: Anticancer human tumor NCI-H1618 cell line growth inhibition;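 note: spheroids exposed to agents for 7 days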
Conditions: for IC50: curve of first compound; for viability, T/C: stronger effect = lower value
Procedure, shortened: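 Complex tumor spheroids combined malignant cells with endothelial cells and mesenchymal stem cells. DNA-damaging drugs and DNA repair inhibitors were tested alone and in combination, at half-log dilutions down from clinical Cmax (top 10 microM if Cmax unknown), 0.25% DMSO final.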

[1] = second compound 30 pM, first compound 0.0316 µM
[2] = second compound 30 pM, first compound 0.1 µM
[3] = second compound 30 pM, first compound 0.316 µM
[4] = second compound 30 pM, first compound 1 µM
[5] = second compound 30 pM, first compound 3.16 µM
[6] = second compound 30 pM, first compound 10 µM
[7] = second compound 94.9 pM, first compound 0.0316 µM
[8] = second compound 94.9 pM, first compound 0.1 µM
[9] = second compound 94.9 pM, first compound 0.316 µM
[10] = second compound 94.9 pM, first compound 1 µM
[11] = second compound 94.9 pM, first compound 3.16 µM
[12] = second compound 94.9 pM, first compound 10 µM
[13] = second compound 0.0003 µM, first compound 0.0316 µM
[14] = second compound 0.0003 µM, first compound 0.1 µM
[15] = second compound 0.0003 µM, first compound 0.316 µM
[16] = second compound 0.0003 µM, first compound 1 µM
[17] = second compound 0.0003 µM, first compound 3.16 µM
[18] = second compound 0.0003 µM, first compound 10 µM
[19] = second compound 0.000949 µM, first compound 0.0316 µM
[20] = second compound 0.000949 µM, first compound 0.1 µM
[21] = second compound 0.000949 µM, first compound 0.316 µM
[22] = second compound 0.000949 µM, first compound 1 µM
[23] = second compound 0.000949 µM, first compound 3.16 µM
[24] = second compound 0.000949 µM, first compound 10 µM
[25] = second compound 0.003 µM, first compound 0.0316 µM
[26] = second compound 0.003 µM, first compound 0.1 µM
[27] = second compound 0.003 µM, first compound 0.316 µM
[28] = second compound 0.003 µM, first compound 1 µM
[29] = second compound 0.003 µM, first compound 3.16 µM
[30] = second compound 0.003 µM, first compound 10 µM

Compound | IC50 (second compound 30 pM) | IC50 (second compound 94.9 pM) | IC50 (second compound 0.0003 µM) | IC50 (second compound 0.000949 µM) | IC50 (second compound 0.003 µM) | viability, T/C [1] | viability, T/C [2] | viability, T/C [3] | viability, T/C [4] | viability, T/C [5] | viability, T/C [6] | viability, T/C [7] | viability, T/C [8] | viability, T/C [9] | viability, T/C [10] | viability, T/C [11] | viability, T/C [12] | viability, T/C [13] | viability, T/C [14] | viability, T/C [15] | other results
CC1COCCN1c1cc(-c2ccnn2C)c2ccnc(-c3ccn[nH]3)c2n1 (stereo not given) + COc1cc2c(cc1O)CCNC21CSC2c3c(OC(C)=O)c(C)c4c(c3C(COC1=O)N1C(O)C3Cc5cc(C)c(OC)c(O)c5C(C21)N3C)OCO4 | < 0.0316 µM | < 0.0316 µM | < 0.0316 µM | < 0.0316 µM | < 0.0316 µM | 41% | 8.59% | 2.6% | 1.69% | 1.44% | 1.07% | 4.76% | 7.64% | 1.66% | 2.1% | 0.97% | 1.13% | 7.32% | 1.52% | 2.44% | viability, T/C [16]: 1.22%; viability, T/C [17]: 1.2%; viability, T/C [18]: 1.07%; viability, T/C [19]: 1.86%; viability, T/C [20]: 2.16%; viability, T/C [21]: 1.58%; viability, T/C [22]: 1.26%; viability, T/C [23]: 1.11%; viability, T/C [24]: 1.22%; viability, T/C [25]: 1.5%; viability, T/C [26]: 1.77%; viability, T/C [27]: 2.41%; viability, T/C [28]: 2.07%; viability, T/C [29]: 1.2%; viability, T/C [30]: 1.35%
COc1cc(C)[nH]c(=O)c1CN1CCc2c(Cl)cc(C(OC)C3COC3)c(Cl)c2C1=O (stereo not given) + COc1cc2c(cc1O)CCNC21CSC2c3c(OC(C)=O)c(C)c4c(c3C(COC1=O)N1C(O)C3Cc5cc(C)c(OC)c(O)c5C(C21)N3C)OCO4 | > 10 µM | 0.527 µM | < 0.0316 µM | < 0.0316 µM | < 0.0316 µM | 73.8% | 74.9% | 61.7% | 73.8% | 74.4% | 67.9% | 86.8% | 65.9% | 48.3% | 57.5% | 31.9% | 38.4% | 14.9% | 19.3% | 5.64% | viability, T/C [16]: 2.68%; viability, T/C [17]: 1.81%; viability, T/C [18]: 3.33%; viability, T/C [19]: 5.55%; viability, T/C [20]: 2.33%; viability, T/C [21]: 3.62%; viability, T/C [22]: 3.05%; viability, T/C [23]: 3.08%; viability, T/C [24]: 3.38%; viability, T/C [25]: 3.07%; viability, T/C [26]: 2.73%; viability, T/C [27]: 3.33%; viability, T/C [28]: 2.29%; viability, T/C [29]: 1.94%; viability, T/C [30]: 2.51%
COc1ccc([C@@H](O)c2cc(-c3ncnc4cc(N5CCOCC5)ccc34)c(F)cc2Cl)nn1 + COc1cc2c(cc1O)CCNC21CSC2c3c(OC(C)=O)c(C)c4c(c3C(COC1=O)N1C(O)C3Cc5cc(C)c(OC)c(O)c5C(C21)N3C)OCO4 | 3.72 µM | 1.45 µM | < 0.0316 µM | < 0.0316 µM | < 0.0316 µM | 94.5% | 103% | 104% | 97.6% | 55.8% | 15% | 75.4% | 82.7% | 55.5% | 65.7% | 32.6% | 3.93% | 14.8% | 29.8% | 13.9% | viability, T/C [16]: 3.02%; viability, T/C [17]: 3.64%; viability, T/C [18]: 0.49%; viability, T/C [19]: 4.34%; viability, T/C [20]: 4.36%; viability, T/C [21]: 3.33%; viability, T/C [22]: 3.78%; viability, T/C [23]: 5.45%; viability, T/C [24]: 0.45%; viability, T/C [25]: 2.98%; viability, T/C [26]: 4.77%; viability, T/C [27]: 4.99%; viability, T/C [28]: 3.43%; viability, T/C [29]: 2.67%; viability, T/C [30]: 1.04%
Cc1cc(C)c(CNC(=O)c2cc(-c3ccc(CN4CCOCC4)cc3)cc3c2cnn3C2CCCC2)c(=O)[nH]1 + COc1cc2c(cc1O)CCNC21CSC2c3c(OC(C)=O)c(C)c4c(c3C(COC1=O)N1C(O)C3Cc5cc(C)c(OC)c(O)c5C(C21)N3C)OCO4 | > 10 µM | 1.77 µM | < 0.0316 µM | < 0.0316 µM | < 0.0316 µM | 92.5% | 86.8% | 89.7% | 72.7% | 88% | 58.6% | 46.9% | 66.5% | 66.9% | 55% | 45.7% | 44.2% | 2.47% | 10.3% | 4.67% | viability, T/C [16]: 5.71%; viability, T/C [17]: 2.43%; viability, T/C [18]: 2.6%; viability, T/C [19]: 4.74%; viability, T/C [20]: 7.05%; viability, T/C [21]: 2.83%; viability, T/C [22]: 3.43%; viability, T/C [23]: 3.12%; viability, T/C [24]: 2.59%; viability, T/C [25]: 2.14%; viability, T/C [26]: 3%; viability, T/C [27]: 3.25%; viability, T/C [28]: 4.16%; viability, T/C [29]: 3.95%; viability, T/C [30]: 1.24%
[2H]c1nc(C)nc([2H])c1-c1cc(NC[C@@H](C)c2cccc3c(C(=O)NC)ccnc23)ncn1 + COc1cc2c(cc1O)CCNC21CSC2c3c(OC(C)=O)c(C)c4c(c3C(COC1=O)N1C(O)C3Cc5cc(C)c(OC)c(O)c5C(C21)N3C)OCO4 | > 10 µM | 0.249 µM | < 0.0316 µM | < 0.0316 µM | < 0.0316 µM | 101% | 93.8% | 87.8% | 103% | 93.9% | 83.3% | 90.6% | 61.4% | 24.4% | 55.4% | 52.7% | 55.7% | 5.13% | 2.89% | 3.41% | viability, T/C [16]: 5.38%; viability, T/C [17]: 18.8%; viability, T/C [18]: 3.93%; viability, T/C [19]: 3.46%; viability, T/C [20]: 3.49%; viability, T/C [21]: 3.75%; viability, T/C [22]: 4.59%; viability, T/C [23]: 4.63%; viability, T/C [24]: 4.69%; viability, T/C [25]: 2.53%; viability, T/C [26]: 3.55%; viability, T/C [27]: 4.4%; viability, T/C [28]: 3.2%; viability, T/C [29]: 1.87%; viability, T/C [30]: 5.37%
